{
  "source": "BindingDB's records for doi:10.1111/cbdd.12497",
  "about": "(Shandong University, 2015)",
  "data": [
    {"biological_target": "Reverse transcriptase protein (Human immunodeficiency virus 1, UniProt Q9WJQ1)", "assay": "In vitro Anti-HIV RT Assay", "excerpt": "The HIV-1 RTwt inhibition assay was implemented using the template/primer hybrid poly(A)9oligo(dT)15, digoxigenin- and biotin-labeled nucleotides, an antibody to digoxigenin which is conjugated to peroxidase (anti-DIG-POD), and the peroxidase substrate ABTS for quantifying the RT polymerase activity. The incorporation quantities of the digoxigenin- and biotin-labeled dUTP into DNA represented the activity of HIV-1 RT. The IC50 value corresponds to the concentration of the tested compound required to inhibit the incorporation of the labeled dUTP by 50%. The procedure for RT assay was performed as described in the kit (Roche) protocol", "units": {"IC50": "nM"}, "values": [
      {"smiles": "Cc1cc(C#N)cc(C)c1Oc1nc(Nc2ccc(C#N)cc2)nc(N)c1Br", "IC50": 89},
      {"smiles": "Cc1cc(C)cc(C(=O)c2cccnc2Oc2ccc(C#N)cc2)c1", "note": "[4-(3-(3,5-Dimethylbenzoyl)pyridin-2-yloxy)benzonitrile (6a1)]", "IC50": 150000},
      {"smiles": "Cc1ccnc2c1NC(=O)c1cccnc1N2C1CC1", "note": "[BI-RG-587]", "IC50": 580}
    ]}
  ]
}
